In patent publication US7947830B2, “Substituted propenyl piperazine derivatives as novel inhibitors of histone deacetylase” (Janssen Pharmaceutica N.V., priority 2004, dated 2011):
Converted amounts (≈) assume the structure as drawn.

Key:
[1] = target: histone deacetylase (HeLa nuclear extracts); assay: In vitro assay for inhibition of histone deacetylase (HDAC Fluorescent Activity Assay, Fluor de Lys); format: biochemical; settings: Fluor de Lys substrate
From the text: The in vitro assay for inhibition of histone deacetylase (see example C.1) measures the inhibition of HDAC enzymatic activity obtained with the compounds of formula (I).
The HDAC Fluorescent Activity Assay/Drug Discovery Kit of Biomol (cat.No: AK-500-0001) was used. The HDAC Fluorescent Activity Assay is based on the Fluor de Lys (Fluorogenic […] deAcetylase Lysyl) substrate and developer combination. The Fluor de Lys substrate, comprises an acetylated lysine side chain. Deacetylation of the substrate sensitizes the substrate so that, in the second step, treatment with the Fluor de Lys developer produces a fluorophore.
After 30 min, 1 volume of the developer was added. […] For each experiment, controls (containing HeLa nuclear extract and buffer), a blank incubation (containing buffer but no HeLa nuclear extract) and samples (containing compound dissolved in DMSO and further diluted in buffer and HeLa nuclear extract) were run in parallel. […] All sample were tested 4 times. In each test the blank value was substracted from both the control and the sample values. The control sample represented 100% of substrate deactylation. For each sample the fluorescence was expressed as a percentage of the mean value of the controls. […] Herein the effects of test compounds are expressed as pIC50 (the negative log value of the IC50-value) (see Table F-3).

[2] = tested on: A2780 ovarian carcinoma cells; assay: Antiproliferative activity on A2780 cells (MTT); format: cell-based, human; settings: four days of incubation; for IC50: Homo sapiens, A2780, 96 h, read-out: Cellular activity pIC50 C.2. (converted)
Procedure: Cellular activity of the compounds of formula (I) was determined on A2780 tumour cells using a […] assay for cell toxicity or survival (Mosmann Tim, Journal of Immunological Methods 65: 55-63, 1983)(see example C.2).
All compounds tested were dissolved in DMSO and further dilutions were made in culture medium. Final DMSO concentrations never exceeded 0.1% (v/v) in cell proliferation assays. Controls contained A2780 cells and DMSO without compound and blanks contained DMSO but no cells. MTT was dissolved at 5 mg/ml in PBS. A glycine buffer comprised of 0.1 M glycine and 0.1 M NaCl buffered to pH 10.5 with NaOH (1 N) was prepared (all reagents were from Merck).
The human A2780 ovarian carcinoma cells (a kind gift from Dr. T. C. Hamilton [Fox Chase Cancer Centre, Pennsylvania, USA]) were cultured in RPMI 1640 medium supplemented with 2 mM L-glutamine, 50 μg/ml gentamicin and 10% fetal calf serum.
Cells were routinely kept as monolayer cultures at 37° C. in a humidified 5% CO2 atmosphere. Cells were passaged once a week using a trypsin/EDTA solution at a split ratio of 1:40. All media and supplements were obtained from Life Technologies. Cells were free of mycoplasma contamination as determined using the Gen-Probe Mycoplasma Tissue Culture kit (supplier: BioMérieux).
Cells were seeded in NUNC™ 96-well culture plates (Supplier: Life Technologies) and allowed to adhere to the plastic overnight. Densities used for plating were 1500 cells per well in a total volume of 200 μl medium. After cell adhesion to the plates, medium was changed and drugs and/or solvents were added to a final volume of 200 μl. Following four days of incubation, medium was replaced by 200 μl fresh medium and cell density and viability was assessed using an MTT-based assay. To each well, 25 μl […] solution was added and the cells were further incubated for 2 hours at 37° C. The medium was then carefully aspirated and the blue MTT-formazan product was solubilized by addition of 25 μl glycine buffer followed by 100 μl of DMSO. […] Within an experiment, the results for each experimental condition are the mean of 3 replicate wells. For initial screening purposes, compounds were tested at a single fixed concentration of 10^−6 M. For active compounds, the experiments were repeated to establish full concentration-response curves. For each experiment, controls (containing no drug) and a blank incubation (containing no cells or drugs) were run in parallel. The blank value was subtracted from all control and sample values. For each sample, the mean value for cell growth (in absorbance units) was expressed as a percentage of the mean value for cell growth of the control. […] Herein the effects of test compounds are expressed as pIC50 (the negative log value of the IC50-value)(see Table F-3).

[3] = Solubility at different pH's, chemiluminescent nitrogen detector (C.3.b); format: physicochemical; settings: for solubility: pH 2.3, aqueous buffer, read-out: Solubility C.3.b. pH = 2.3 mg/ml
From the text: In a second method the solubility of a compound at different pH's can be measured with the use of a chemiluminescent nitrogen detector (see example C.3.b).
The solubility of a compound, at different pH's, can also be measured with the use of a cherniluminescent nitrogen detector (see Table F-3).

[4] = Kinetic solubility in aqueous media (nephelometer, C.3.a); format: physicochemical; settings: aqueous buffer, kinetic from dmso stock; score; phosphate citrate buffer pH 7.4, turbidity
Procedure: The solubility of a compound measures the ability of a compound to stay in solution. In a first method the ability of a compound to stay in aqueous solution upon dilution (see example C.3.a) is measured. DMSO-stock solutions are diluted with a single aqueous buffer solvent in 3 consecutive steps. For every dilution turbidity is measured with a nephelometer.
In the first dilution step, 10 μl of a concentrated stock-solution of the active compound, solubilized in DMSO (5 mM), was added to 100 μl phosphate citrate buffer pH 7.4 and mixed. In the second dilution step, an aliquot (20 μl) of the first dilution step was further dispensed in 100 μl phosphate citrate buffer pH 7.4 and mixed. Finally, in the third dilution step, a sample (20 μl) of the second dilution step was further diluted in 100 μl phosphate citrate buffer pH 7.4 and mixed. All dilutions were performed in 96-well plates. Immediately after the last dilution step the turbidity of the three consecutive dilution steps were measured with a nephelometer. Dilution was done in triplicate for each compound to exclude occasional errors. Based on the turbidity measurements a ranking is performed into 3 classes. Compounds with high solubility obtained a score of 3 and for this compounds the first dilution is clear. Compounds with medium solubility obtained a score of 2. For these compounds the first dilution is unclear and the second dilution is clear.

Compound	Enzymatic activity pIC50 C.1. [1]	Cellular activity pIC50 C.2. [2]	IC50 [2] [nM]	other results
O=C(NO)c1cnc(N2CCN(C(/C=C/c3ccc(Cl)cc3)CN3CCOCC3)CC2)nc1 (stereo not drawn) (hydrate or solvate) [Compound 2]				melting point: 135 °C
CN(C)C(=O)C(C)(/C=C/c1ccc(F)cc1)N1CCN(c2ncc(C(=O)NO)cn2)CC1 (stereo not drawn) (hydrate or solvate) [Compound 10]				melting point: 146 °C
O=C(NO)c1cnc(N2CCN([C@@H](/C=C/c3ccccc3)CO)CC2)nc1 (single isomer, unassigned) [Compound 25]	7.9	7.6		solubility [3]: 3400 µg/mL (≈ 9.2 mM)
O=C(NO)c1cnc(N2CCN([C@@H](/C=C/c3ccccc3)CO)CC2)nc1 (single isomer, unassigned) [Compound 26]	8.3	7.2		Solubility C.3.b. pH = 2.3 mg/ml [3]: 3.5 mg/ml
O=C(NO)c1cnc(N2CCN([C@@H](/C=C/c3ccc(F)cc3)CO)CC2)nc1 (single isomer, unassigned) [Compound 27]		7.5		
O=C(NO)c1cnc(N2CCN([C@H](/C=C/c3ccc(F)cc3)CO)CC2)nc1 (single isomer, unassigned) [Compound 28]		7.5		
O=C(NO)c1cnc(N2CCN([C@@H](/C=C/c3ccc(F)cc3)CO)CC2)nc1 (single isomer, unassigned) [Compound 33]		8.2		
O=C(NO)c1cnc(N2CCN([C@H](/C=C/c3ccc(F)cc3)CO)CC2)nc1 (single isomer, unassigned) [Compound 34]		7.9		
O=C(NO)c1cnc(N2CCN(C(/C=C/c3ccc(Cl)cc3)CN3CCOCC3)CC2)nc1 (stereo not drawn) [Compound 2]	7.4		316	solubility [4]: > 455 µM
COc1ccc(/C=C/C(CO)N2CCN(c3ncc(C(=O)NO)cn3)CC2)cc1 (stereo not drawn) [Compound 3]	8.1		31.6	solubility [4]: > 455 µM
O=C(NO)c1cnc(N2CCN(C(/C=C/c3ccc(-c4ccccc4)cc3)CO)CC2)nc1 (stereo not drawn) [Compound 5]	7.9		39.8	solubility [4]: < 76 µM
O=C(NO)c1cnc(N2CCN(C(/C=C/c3ccc(C(F)(F)F)cc3)CO)CC2)nc1 (stereo not drawn) [Compound 6]	7.6		39.8	solubility [4]: > 455 µM
CC(/C=C/c1ccccc1)N1CCN(c2ncc(C(=O)NO)cn2)CC1 (stereo not drawn) [Compound 7]	>9		31.6	solubility [3]: 2000 µg/mL (≈ 5.66 mM); melting point: 161 °C
O=C(NO)c1cnc(N2CCN(C(/C=C/c3ccc(F)cc3)CO)CC2)nc1 (stereo not drawn) [Compound 8]			12.6	solubility [3]: 2900 µg/mL (≈ 7.49 mM)
CC(=O)OCC(/C=C/c1ccccc1)N1CCN(c2ncc(C(=O)NO)cn2)CC1 (stereo not drawn) [Compound 9]	9.4		25.1	melting point: 161 °C
CN(C)C(=O)C(C)(/C=C/c1ccc(F)cc1)N1CCN(c2ncc(C(=O)NO)cn2)CC1 (stereo not drawn) [Compound 10]	8.4		31.6	solubility [3]: 3000 µg/mL (≈ 6.78 mM)
